The target in the assay is T1, full-length MALT1 protein His-MALT1(1-824) (Homo sapiens, UniProt Q9UDY8).
T1 construct: full-length MALT1 protein His-MALT1(1-824); His (N); made in house; host or cells: baculovirus-infected insect cells
T1 sequence (Q9UDY8 1-824): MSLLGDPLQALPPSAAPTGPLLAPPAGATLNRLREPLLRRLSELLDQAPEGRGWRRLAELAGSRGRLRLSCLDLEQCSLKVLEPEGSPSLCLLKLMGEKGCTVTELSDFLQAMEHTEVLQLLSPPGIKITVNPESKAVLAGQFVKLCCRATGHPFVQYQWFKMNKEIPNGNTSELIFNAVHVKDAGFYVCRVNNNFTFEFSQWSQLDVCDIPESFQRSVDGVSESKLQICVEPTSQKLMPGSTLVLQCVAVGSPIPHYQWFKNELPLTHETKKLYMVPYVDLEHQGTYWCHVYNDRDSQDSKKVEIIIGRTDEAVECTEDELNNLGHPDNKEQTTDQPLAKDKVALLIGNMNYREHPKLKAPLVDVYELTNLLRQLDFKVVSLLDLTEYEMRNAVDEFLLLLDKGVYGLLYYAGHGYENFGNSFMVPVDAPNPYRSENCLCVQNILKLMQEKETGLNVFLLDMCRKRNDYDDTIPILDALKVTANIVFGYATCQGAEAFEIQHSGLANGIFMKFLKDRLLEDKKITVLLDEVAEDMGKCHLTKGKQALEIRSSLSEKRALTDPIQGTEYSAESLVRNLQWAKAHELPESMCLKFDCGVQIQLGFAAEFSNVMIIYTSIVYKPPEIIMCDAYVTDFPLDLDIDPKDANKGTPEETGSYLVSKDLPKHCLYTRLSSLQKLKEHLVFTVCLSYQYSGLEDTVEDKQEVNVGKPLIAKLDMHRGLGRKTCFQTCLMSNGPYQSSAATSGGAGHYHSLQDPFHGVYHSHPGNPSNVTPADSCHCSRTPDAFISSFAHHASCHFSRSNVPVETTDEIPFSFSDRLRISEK
Kind of assay: MALT1 protease assay, Assay 2 (1 nM MALT1, Ac-LRSR-AMC substrate). Conditions: 1 nM MALT1, 50 μM Ac-LRSR-AMC, 2 h pre-incubation, 8 hr incubation at RT. The assay is classed as biochemical. The procedure:
MALT1 protease activity was assessed in an in vitro assay using a tetrapeptide as substrate and full-length MALT1 protein His-MALT1(1-824) purified from baculovirus-infected insect cells. The tetrapeptide substrate is Ac-LRSR-AMC (SM Biochemicals) with Km measured at around 100 μM.
The final assay buffer includes 1 nM (Assay 2) or 2 nM (Assay 1) of MALT1 full-length protein, 50 μM Ac-LRSR-AMC substrate, 50 mM Tris pH 7.5, 600 mM Sodium Citrate, 1 mM DTT, 1 mM EDTA, and 0.05% BSA in 384-well plate format using black microtiter square well plates (Optiplate 384-F, Perkin Elmer).
Test compounds were dissolved in 100% DMSO at stock of 10 mM, with final DMSO concentration 0.1%. Test compounds were pre-incubated with MALT1 protein for 2 h at room temperature. Substrate was added after the pre-incubation and fluorescence signal was measured using Envision at excitation 355 nm and emission 460 nm after 8 hr incubation at RT. Increase in the assay signal was linear over this period and proportional with increase in the enzyme content.
The fluorescence units were transformed to percentage of remaining activity by using the high control (HC, median of fluorescence signal from wells containing MALT1 protein, substrate, and DMSO) and low control (LC, median of fluorescence signal from wells with substrate only) with the formula below: […]
IC50 and Hill coefficients were obtained using Graph Pad Prism (Graph Pad software, Inc, USA) with non-linear regression analysis.
As a reminder, the IC50 is the concentration at which inhibition is half-maximal. Read a low IC50 as greater potency. The compound `O=C(Nc1cnc(-n2nccn2)c(Cl)c1)[C@@H]1CC2(CC2)c2c1cnc1cc(F)nn21` (single isomer, unassigned) [Example 94, N-(5-chloro-6-(2H-1,2,3-triazol-2-yl)pyridin-3-yl)-2-fluoro-6,7-dihydrospiro[cyclopenta[e]pyrazolo[1,5-a]pyrimidine-8,1′-cyclopropane]-6-carboxamide] displayed a half-inhibitory concentration (IC50) of 10 to 100 nM. For `Cc1cc(NC(=O)[C@@H]2CC(C)(C)c3c2cnc2cc(Cl)nn32)cnc1-n1nccn1` (single isomer, unassigned) [Example 181], the half-inhibitory concentration (IC50) was in the range of 10 to 100 nM. In turn, `CNC(=O)c1ncc(NC(=O)C2CC(C)(C)c3c2cnc2cc(Cl)nn32)cc1C(F)(F)F` (single isomer, unassigned) [Example 155, 2-chloro-8,8-dimethyl-N-(6-(methylcarbamoyl)-5-(trifluoromethyl)pyridin-3-yl)-7,8-dihydro-6H-cyclopenta[e]pyrazolo[1,5-a]pyrimidine-6-carboxamide] came in with an IC50 of 10 to 100 nM. Compound `Cc1cc(NC(=O)C2CC(C)(C)c3c2cnc2cc(F)nn32)cnc1-c1ccn(C)n1` (stereo not shown) [Example 177, 2-fluoro-8,8-dimethyl-N-(5-methyl-6-(1-methyl-1H-pyrazol-3-yl)pyridin-3-yl)-7,8-dihydro-6H-cyclopenta[e]pyrazolo[1,5-a]pyrimidine-6-carboxamide] had an IC50 of 100 to 1000 nM.

The compound `CC1(C)CC(C(=O)Nc2cnc(-c3nnnn3C3COC3)c(Cl)c2)c2cnc3cc(Cl)nn3c21` (stereo not shown) [Example 163, 2-chloro-N-(5-chloro-6-(1-(oxetan-3-yl)-1H-tetrazol-5-yl)pyridin-3-yl)-8,8-dimethyl-7,8-dihydro-6H-cyclopenta[e]pyrazolo[1,5-a]pyrimidine-6-carboxamide] had an IC50 of 100 to 1000 nM. The value for `CC1(C)CC(C(=O)Nc2cnc(N3CCC3=O)c(Cl)c2)c2cnc3cc(F)nn3c21` (stereo not shown) [Example 176, N-(5-chloro-6-(2-oxoazetidin-1-yl)pyridin-3-yl)-2-fluoro-8,8-dimethyl-7,8-dihydro-6H-cyclopenta[e]pyrazolo[1,5-a]pyrimidine-6-carboxamide] was 100 to 1000 nM; that for `Cc1cc(NC(=O)C2CC(C)(C)c3c2cnc2cc(F)nn32)cnc1N1CCC1` (stereo not shown) [Example 179, N-(6-(azetidin-1-yl)-5-methylpyridin-3-yl)-2-fluoro-8,8-dimethyl-7,8-dihydro-6H-cyclopenta[e]pyrazolo[1,5-a]pyrimidine-6-carboxamide] was at least 1000 nM.

Take `Cc1cc(NC(=O)[C@@H]2CC(C)(C)c3c2cnc2cc(F)nn32)cnc1-n1nccn1` (single isomer, unassigned) [Example 182]: the IC50 was at least 1000 nM.

The compound `N#Cc1cc(NC(=O)[C@H]2CC3(CCOCC3)c3c2cnc2cc(F)nn32)cnc1OC(F)F` (single isomer, unassigned) [Example 146, N-(5-cyano-6-(difluoromethoxy)pyridin-3-yl)-2-fluoro-2′,3′,5′,6,6′,7-hexahydrospiro[cyclopenta[e]pyrazolo[1,5-a]pyrimidine-8,4′-pyran]-6-carboxamide] came in with a half-inhibitory concentration (IC50) of 10 to 100 nM. Next, `CC1(C)C[C@@H](C(=O)Nc2cc(C(F)F)c(-c3ncco3)c(=O)[nH]2)c2cnc3cc(Cl)nn3c21` (single isomer, unassigned) [Example 57, 2-chloro-N-(4-(difluoromethyl)-5˜(oxazol-2-yl)-6-oxo-1,6-dihydropyridin-2-yl)-8,8-dimethyl-7,8-dihydro-6H-cyclopenta[e]pyrazolo[1,5-a]pyrimidine-6-carboxamide]: 100 to 1000 nM; `C[C@]1(C(F)(F)F)C[C@@H](C(=O)Nc2cnc(-n3nccn3)c(Cl)c2)c2cnc3cc(F)nn3c21` (single isomer, unassigned) [Example 184]: 100 to 1000 nM. In the case of `CC1(C)CC(C(=O)Nc2cnc(OC(F)F)c(C#N)c2)c2cnn3cc(C(F)F)nc3c21` (single isomer, unassigned) [Example 199, N-(5-cyano-6-(difluoromethoxy)pyridin-3-yl)-2-(difluoromethyl)-9,9-dimethyl-8,9-dihydro-7H-cyclopenta[d]imidazo[1,2-b]pyridazine-7-carboxamide], the IC50 lay in the range of 10 to 100 nM. The value for `CC1(C)C[C@@H](C(=O)Nc2ccnc(C(F)(F)F)c2)c2cnn3cc(C(F)F)nc3c21` (single isomer, unassigned) [Example 200, 2-(difluoromethyl)-9,9-dimethyl-N-(2-(trifluoromethyl)pyridin-4-yl)-8,9-dihydro-7H-cyclopenta[d]imidazo[1,2-b]pyridazine-7-carboxamide] was 100 to 1000 nM; that for `CC1(C)CC(C(=O)Nc2cnc(-n3nccn3)c(C#N)c2)c2cnn3cc(C(F)F)nc3c21` (single isomer, unassigned) [Example 197, N-(5-cyano-6-(2H-1,2,3-triazol-2-yl)pyridin-3-yl)-2-(difluoromethyl)-9,9-dimethyl-8,9-dihydro-7H-cyclopenta[d]imidazo[1,2-b]pyridazine-7-carboxamide] was 10 to 100 nM; that for `CC1(C)C[C@@H](C(=O)Nc2cnc(-n3nccn3)c(C#N)c2)c2cnc3cc(C(F)F)nn3c21` (single isomer, unassigned) [Example 129, N-(5-cyano-6-(2H-1,2,3-triazol-2-yl)pyridin-3-yl)-2-(difluoromethyl)-8,8-dimethyl-7,8-dihydro-6H-cyclopenta[e]pyrazolo[1,5-a]pyrimidine-6-carboxamide] was 100 to 1000 nM.

For the compound `CC1(C)C[C@@H](C(=O)Nc2cnc(-n3nccn3)c(Cl)c2)c2cnn3cc(Cl)nc3c21` (single isomer, unassigned) [Example 194, 2-chloro-N-(5-chloro-6-(2H-1,2,3-triazol-2-yl)pyridin-3-yl)-9,9-dimethyl-8,9-dihydro-7H-cyclopenta[d]imidazo[1,2-b]pyridazine-7-carboxamide], the IC50 is 100 to 1000 nM.

Take `C[C@@]1(C(F)(F)F)C[C@@H](C(=O)Nc2cnc(-n3nccn3)c(C(F)(F)F)c2)c2cnc3cc(Cl)nn3c21` (single isomer, unassigned) [Example 53, N-(6-(2H-1,2,3-triazol-2-yl)-5˜(trifluoromethyl)pyridin-3-yl)-2-chloro-8-methyl-8-(trifluoromethyl)-7,8-dihydro-6H-cyclopenta[e]pyrazolo[1,5-a]pyrimidine-6-carboxamide]: the IC50 lay within 100 to 1000 nM. `CCO[C@@]1(C(F)(F)F)C[C@H](C(=O)Nc2cnc(-n3nccn3)c(Cl)c2)c2cnc3cc(Cl)nn3c21` (single isomer, unassigned) [Example 168, (trans)-2-chloro-N-(5-chloro-6-(2H-1,2,3-triazol-2-yl)pyridin-3-yl)-8-ethoxy-8-(trifluoromethyl)-7,8-dihydro-6H-cyclopenta[e]pyrazolo[1,5-a]pyrimidine-6-carboxamide]: the IC50 was in the range of 100 to 1000 nM.

Compound `Cc1c(F)nn2c3c(cnc12)C(C(=O)Nc1cnc(-n2nccn2)c(Cl)c1)CC3(C)C` (single isomer, unassigned) [Example 114, N-(5-chloro-6-(2H-1,2,3-triazol-2-yl)pyridin-3-yl)-2-fluoro-3,8,8-trimethyl-7,8-dihydro-6H-cyclopenta[e]pyrazolo[1,5-a]pyrimidine-6-carboxamide] gave an IC50 of 100 to 1000 nM.

Source of the values: US12667572B2, “Tricyclic compounds useful in the treatment of cancer, autoimmune and inflammatory disorders” (SCHRÖDINGER, INC., priority 2021, dated 2026).
